The values below come from patent US10556922B2, “Crystalline and amorphous forms of 17-alpha-hydroxyprogesterone caproate” (AMAG Pharmaceuticals, Inc., priority 2015, dated 2020).

Each structure is given as a SMILES string. ≈ marks a conversion by molar mass, not a printed value. Like-named read-outs stand apart in the source and are kept apart here.

The nature of series [1]: Solution-mediated transformation studies (relative physical stability of Form A and Form B versus temperature). In kind it is physicochemical. As to the method: Solution-mediated transformation studies were conducted to establish the relative physical stability of Form A and Form B versus temperature. Excess solid was suspended in a slurry using various solvents, including mixtures of benzyl benzoate and castor oil. After equilibration times of 1 day to two weeks, the excess solid was filtered and analyzed by powder x-ray diffraction to determine the crystalline form.

Series [2] in a line: Solubility of crystalline HPC in organic solvents. The note with it: organic solvent or mixture, 25° C. It is filed as physicochemical.

For `CCCCCC(=O)O[C@]1(C(C)=O)CC[C@H]2[C@@H]3CCC4=CC(=O)CC[C@]4(C)[C@H]3CC[C@@]21C` [Form B, 17-α-hydroxyprogesterone caproate], the relative physical stability entry in series [1] (below 27° C.) was “more stable (less soluble)”; in series [1] (below room temperature, additional studies) it was “likely to be more stable”. In addition, in series [1] (storage temperatures of room temperature (20-25° C.) or below (refrigeration)), the “physical stability on storage” value was “physically stable polymorph”.

The solubility is the concentration that dissolves in the medium under given conditions. In the case of `CCCCCC(=O)O[C@]1(C(C)=O)CC[C@H]2[C@@H]3CCC4=CC(=O)CC[C@]4(C)[C@H]3CC[C@@]21C` [Form A, 17-α-hydroxyprogesterone caproate], the solubility in series [2] (ethanol, read-out: solubility in ethanol) was around 118 mg/mL (≈ 275 mM); in series [2] (ethyl acetate, read-out: solubility in ethyl acetate) it was around 419 mg/mL (≈ 978 mM); in series [2] (isopropanol, read-out: solubility in isopropanol), around 91 mg/mL (≈ 212 mM); in series [2] (methanol, read-out: solubility in methanol), around 142 mg/mL (≈ 331 mM). For the same molecule, the relative physical stability entry in series [1] (above 35° C.) is recorded as “more stable (less soluble)”.
